Patent US9346834B2, “Boron-containing small molecules as antiprotozoal agents” (Anacor Pharmaceuticals, Inc., priority 2009, dated 2016)

System: Leishmania infantum MHOM/MA(BE)/67
Assay: Leishmania infantum macrophage screening assay, primary screen
Type: cell-based
Conditions: 120 h, amastigotes in primary peritoneal mouse macrophages, 5 days incubation, % reduction in parasite burden, reference drugs, read-out: IC50 (50% inhibitory concentration)
Method: Parasite and Cell Cultures. Two Leishmania species (L. infantum MHOM/MA(BE)/67 and L. donovani MHOM/ET/67/L82) were used. The strains were maintained in the Golden Hamster (Mesocricetus auratus). Amastigotes were collected from the spleen of an infected donor hamster using three centrifugation purification steps (300 rpm, keeping the supernatant, 2200 rpm, keeping the supernatants and 3500 rpm, keeping the pellet) and spleen parasite burdens were assessed using the Stauber technique (Stauber L A., Exp Parasitol. 18: 1-11 (1966)). Primary peritoneal mouse macrophages were used as host cell and were collected 2 days after peritoneal stimulation with a 2% potato starch suspension. All cultures and assays were conducted at 37° C. under an atmosphere of 5% CO2.
Compound Solutions/Dilutions. Compound stock solutions were prepared in 100% DMSO at 20 mM or mg/ml. Concentrations were standard and expressed in molar concentrations, except for natural products, drug mixtures and if the molecular weight was not known. […]
Drug Sensitivity Assays. […] After 5 days incubation, parasite burdens (mean number of amastigotes/macrophage) were microscopically assessed after staining the cells with a 10% Giemsa solution. The results were expressed as % reduction in parasite burden compared to untreated control wells and an IC50 (50% inhibitory concentration) was calculated. […]

Work on `CCCCCCCCCCCCCCCCOP(=O)([O-])OCC[N+](C)(C)C` [miltefosin] yielded an IC50 of 4.3 µM.
